From patent US20140329912A1, “CONTRACEPTIVE COMPOSITIONS AND METHODS OF CONTRACEPTION” (INTEGRITY PHARMACEUTICALS, LLC, priority 2011, published 2014)

Assays:
[1] = tested on: Sperms; assay: Toxicity screening: cell viability by MTS assay; type: cell-based, mice; details: for Average absorbance of cell-reduced MTS at 490 nm: average of trials 1-3; for Corrected average absorbance of cell-reduced MTS at 490 nm: culture media background subtracted
Procedure: (§1) Male BALB/c mice (12-16 week old) were euthanized by CO2-inhalation. The cauda epididymes was clipped and the upper portions of the vas deferens freed from surrounding tissue. Three-four cuts were made using scissors and forceps across the epididymes and several cuts along the length of the vas deferens. Sperm were allowed to swim out of the tissue. The dish was placed in a 5% CO2 incubator set at 37° C. for 10-15 minutes. The solution of sperm was diluted (50 μl sperm+450 μl complete medium) in Whittens/HCO3/BSA. Sperm was removed from the very top or sides of sperm drop to obtain the sperm with highest motility. The dish was then returned to the 5% CO2 incubator set at 37° C. to allow the sperm to capacitate for 1-3 hrs prior to use.
In addition, cell viability with n-propyl bromide was measured by MTS assay (Promega, Madison, Wis.). MTS [3-(4,5-dimethylthiazol-2-yl)-5-(3-carboxymethoxyphenyl)-2-(4-sulfophenyl)-2H-tetrazolium, inner salt] was utilized according to the manufacturer's instructions. The culture growth medium consisted of Whittens-HEPES complete media, (pH 7.2-7.4) prepared and supplemented with 30 mM NaHCO3 and 10 mg/mL BSA (Bovine Serum Albumin, Sigma A0281, fatty acid free). 250 mL of Whittens-Hepes complete media includes 1461 mg of NaCl, 87.6 mg of KCl, 40.8 mg of KH2PO4, 36.1 mg of MgSO4, 247.8 mg of glucose (dextrose), 22.01 mg of pyruvic acid, 130.92 mg of lactic acid (hemi-Ca), and 1191.5 mg of HEPES. After treatments of the sperms, 30 μL of MTS solution was added to each well and pipetted up and down for ten times to ensure properly mixing and incubation was prolonged for 2 h at 37° C., 5% CO2.
Absorbance observations for trials 1-3 and calculated average are expressed as optical density. The absorbance of cell-reduced MTS was read at 490 nm on a spectrophotometer Spectra Max Plus 384, and optical density for absorbance readings is provided in Table II. Absorbance is directly proportional to the number of living cells in culture. Thus, a reduction in absorbance normalized to a control indicates toxicity to a cell. Background absorbance was measured for the culture media only in three trials. An average absorbance was calculated from the three trials. The average optical density for the three trials for the culture media (background) was then subtracted from the average optical density of the various concentration assays for n-propyl bromide (expressed in terms of ppm of n-propyl bromide). Three control trials using only phosphate buffered saline were also measured. The corrected, average optical density of each of the experimental assays was then compared to the corrected, average optical density of the control (PBS only) assays. The comparison is expressed as the percentage of MTS reduction relative to the normalized absorbance of control samples.

[2] = tested on: Sperms; assay: Real-Time PCR Stress and Toxicity PathwayFinder RT2 Profiler array on treated sperm; type: cell-based, mice; details: 50 ppm
Procedure: as §1
Sperms (10^4) were placed in 96-well plate in complete media and treated with n-propyl bromide (50 ppm) or phosphate buffered saline (control) and incubated for 10 minutes in a 5% CO2 incubator set at 37° C. The dish with sperm was then washed 3-times with phosphate buffered saline and returned to the 5% CO2 incubator set at 37° C. for a further 24 hours. Sperm were then collected by centrifugation and subjected to the Stress and Toxicity PathwayFinder™ RT^2 Profiler™ assay according to the manufacturer's instructions (SA Biosciences, Frederick, Md.). This PCR Array profiles the expression of 84 genes whose expression level is indicative of stress and toxicity. […] The array also includes genes representative of pathways activated by prolonged stress, which range from cell death by apoptosis or necrosis to growth arrest and senescence to proliferation and carcinogenesis.

## CCCBr [n-propyl bromide, 1-bromopropane]
[1]; 0.1 ppm
  % of control (MTS reduction relative to PBS only control): 90%
  Absorbance of cell-reduced MTS at 490 nm, Trial 1: 0.2 optical density
  Absorbance of cell-reduced MTS at 490 nm, Trial 2: 0.1 optical density
  Absorbance of cell-reduced MTS at 490 nm, Trial 3: 0.3 optical density
  Average absorbance of cell-reduced MTS at 490 nm: 0.2 optical density
  Corrected average absorbance of cell-reduced MTS at 490 nm: 0.0 optical density
[1]; 1 ppm
  % of control (MTS reduction relative to PBS only control): 100%
  Absorbance of cell-reduced MTS at 490 nm, Trial 1: 0.2 optical density
  Absorbance of cell-reduced MTS at 490 nm, Trial 2: 0.4 optical density
  Absorbance of cell-reduced MTS at 490 nm, Trial 3: 0.1 optical density
  Average absorbance of cell-reduced MTS at 490 nm: 0.2 optical density
  Corrected average absorbance of cell-reduced MTS at 490 nm: 0.1 optical density
[1]; 5 ppm
  % of control (MTS reduction relative to PBS only control): 100%
  Absorbance of cell-reduced MTS at 490 nm, Trial 1: 0.2 optical density
  Absorbance of cell-reduced MTS at 490 nm, Trial 2: 0.3 optical density
  Absorbance of cell-reduced MTS at 490 nm, Trial 3: 0.4 optical density
  Average absorbance of cell-reduced MTS at 490 nm: 0.3 optical density
  Corrected average absorbance of cell-reduced MTS at 490 nm: 0.1 optical density
[1]; 12.5 ppm
  % of control (MTS reduction relative to PBS only control): 100%
  Absorbance of cell-reduced MTS at 490 nm, Trial 1: 0.4 optical density
  Absorbance of cell-reduced MTS at 490 nm, Trial 2: 0.4 optical density
  Absorbance of cell-reduced MTS at 490 nm, Trial 3: 0.1 optical density
  Average absorbance of cell-reduced MTS at 490 nm: 0.3 optical density
  Corrected average absorbance of cell-reduced MTS at 490 nm: 0.1 optical density
[1]; 25 ppm
  % of control (MTS reduction relative to PBS only control): 100%
  Absorbance of cell-reduced MTS at 490 nm, Trial 1: 0.3 optical density
  Absorbance of cell-reduced MTS at 490 nm, Trial 2: 0.4 optical density
  Absorbance of cell-reduced MTS at 490 nm, Trial 3: 0.2 optical density
  Average absorbance of cell-reduced MTS at 490 nm: 0.3 optical density
  Corrected average absorbance of cell-reduced MTS at 490 nm: 0.1 optical density
[1]; 50 ppm
  % of control (MTS reduction relative to PBS only control): 100%
  Absorbance of cell-reduced MTS at 490 nm, Trial 1: 0.2 optical density
  Absorbance of cell-reduced MTS at 490 nm, Trial 2: 0.5 optical density
  Absorbance of cell-reduced MTS at 490 nm, Trial 3: 0.1 optical density
  Average absorbance of cell-reduced MTS at 490 nm: 0.3 optical density
  Corrected average absorbance of cell-reduced MTS at 490 nm: 0.1 optical density
[1]; 100 ppm
  % of control (MTS reduction relative to PBS only control): 400%
  Absorbance of cell-reduced MTS at 490 nm, Trial 1: 0.4 optical density
  Absorbance of cell-reduced MTS at 490 nm, Trial 2: 0.6 optical density
  Absorbance of cell-reduced MTS at 490 nm, Trial 3: 0.7 optical density
  Average absorbance of cell-reduced MTS at 490 nm: 0.6 optical density
  Corrected average absorbance of cell-reduced MTS at 490 nm: 0.4 optical density
[1]; 200 ppm
  % of control (MTS reduction relative to PBS only control): 600%
  Absorbance of cell-reduced MTS at 490 nm, Trial 1: 0.8 optical density
  Absorbance of cell-reduced MTS at 490 nm, Trial 2: 0.9 optical density
  Absorbance of cell-reduced MTS at 490 nm, Trial 3: 0.7 optical density
  Average absorbance of cell-reduced MTS at 490 nm: 0.8 optical density
  Corrected average absorbance of cell-reduced MTS at 490 nm: 0.6 optical density
[1]; 600 ppm
  % of control (MTS reduction relative to PBS only control): 900%
  Absorbance of cell-reduced MTS at 490 nm, Trial 1: 1.2 optical density
  Absorbance of cell-reduced MTS at 490 nm, Trial 2: 1.1 optical density
  Absorbance of cell-reduced MTS at 490 nm, Trial 3: 0.9 optical density
  Average absorbance of cell-reduced MTS at 490 nm: 1.1 optical density
  Corrected average absorbance of cell-reduced MTS at 490 nm: 0.9 optical density
[1]; at concentrations of 50 ppm or less
  cell toxicity (MTS assay, Table II): does not result in significant cell toxicity
[2]; a two-fold or greater change might be significant
  cell death, necrosis, mutigencity, or DNA damage (PCR array, Table I): no significant cell death, necrosis, mutigencity, or DNA damage was observed
[2]; APFA1, NM_001160, Apoptosis and Senescence, 10 minutes, washed, further 24 hours
  Fold Change, gene APFA1 (Apoptotic peptidase activating factor 1): −1.04 fold
[2]; ATM, NM_00051, Cell Cycle Control and DNA Damage Repair, 10 minutes, washed, further 24 hours
  Fold Change, gene ATM (Ataxia telangiectasia mutated): −1.01 fold
[2]; BAD, NM_004322, Apoptosis and Senescence, 10 minutes, washed, further 24 hours
  Fold Change, gene BAD (BCL2 associated agonist of cell death): −1.00 fold
[2]; BAX, NM_004324, Apoptosis and Senescence, 10 minutes, washed, further 24 hours
  Fold Change, gene BAX (BCL2 associated X protein): −1.25 fold
[2]; BCL2, NM_000633, Apoptosis and Senescence, 10 minutes, washed, further 24 hours
  Fold Change, gene BCL2 (B-cell CLL/lymphoma 2): −1.24 fold
[2]; BCL2L1, NM_138578, Apoptosis and Senescence, 10 minutes, washed, further 24 hours
  Fold Change, gene BCL2L1 (BCL2-like 1): −1.06 fold
[2]; BRCA1, NM_007294, Cell Cycle Control and DNA Damage Repair, 10 minutes, washed, further 24 hours
  Fold Change, gene BRCA1 (Breast cancer1, early onset): −1.23 fold
[2]; CASP8, NM_001228, Apoptosis and Senescence, 10 minutes, washed, further 24 hours
  Fold Change, gene CASP8 (Caspase 8, apoptosis related cysteine peptidase): −1.57 fold
[2]; CCNE1, NM_001238, Cell Cycle Control and DNA Damage Repair, 10 minutes, washed, further 24 hours
  Fold Change, gene CCNE1 (Cyclin E1): −1.06 fold
[2]; CDC25A, NM_001789, Cell Cycle Control and DNA Damage Repair, 10 minutes, washed, further 24 hours
  Fold Change, gene CDC25A (Cell division cycle 25, homolog A): −1.04 fold
[2]; CDK4, NM_000075, Cell Cycle Control and DNA Damage Repair, 10 minutes, washed, further 24 hours
  Fold Change, gene CDK4 (Cyclin-dependent kinase 4): −1.04 fold
[2]; CDKN2A, NM_000077, Cell Cycle Control and DNA Damage Repair, 10 minutes, washed, further 24 hours
  Fold Change, gene CDKN2A (Cyclin dependent kinase inhibitor 2A): −1.05 fold
[2]; CDKNA1, NM_000389, Cell Cycle Control and DNA Damage Repair, 10 minutes, washed, further 24 hours
  Fold Change, gene CDKNA1 (Cyclin dependent kinase inhibitor 1A): −1.25 fold
[2]; CFLAR, NM_003879, Apoptosis and Senescence, 10 minutes, washed, further 24 hours
  Fold Change, gene CFLAR (CASP8 & FADD like apoptosis regulator): −1.11 fold
[2]; CHEK2, NM_007194, Cell Cycle Control and DNA Damage Repair, 10 minutes, washed, further 24 hours
  Fold Change, gene CHEK2 (CHk2, Checkpoint homolog): −1.02 fold
[2]; E2F1, NM_005225, Cell Cycle Control and DNA Damage Repair, 10 minutes, washed, further 24 hours
  Fold Change, gene E2F1 (E2F transcription factor 1): −1.17 fold
[2]; GZMA, NM_006144, Apoptosis and Senescence, 10 minutes, washed, further 24 hours
  Fold Change, gene GZMA (Granzyme A): −1.26 fold
[2]; HTATIP2, NM_006410, Apoptosis and Senescence, 10 minutes, washed, further 24 hours
  Fold Change, gene HTATIP2 (HIV-1 tat interactive protein 2): −1.38 fold
[2]; MDM2, NM_002392, Cell Cycle Control and DNA Damage Repair, 10 minutes, washed, further 24 hours
  Fold Change, gene MDM2 (MDM2 p53 binding protein homolog): −1.32 fold
[2]; RB1, NM_000321, Cell Cycle Control and DNA Damage Repair, 10 minutes, washed, further 24 hours
  Fold Change, gene RB1 (Retinoblastoma 1): −1.30 fold
[2]; S100A4, NM_002961, Cell Cycle Control and DNA Damage Repair, 10 minutes, washed, further 24 hours
  Fold Change, gene S100A4 (S100 calcium binding protein A4): −1.15 fold
[2]; TERT, NM_198253, Apoptosis and Senescence, 10 minutes, washed, further 24 hours
  Fold Change, gene TERT (Telomerase reverse transcriptase): −1.16 fold
[2]; TNFRS1A, NM_001065, Apoptosis and Senescence, 10 minutes, washed, further 24 hours
  Fold Change, gene TNFRS1A (Tumor necrosis factor receptor super family member 1A): −1.36 fold
[2]; TNFRSF10B, NM_003842, Apoptosis and Senescence, 10 minutes, washed, further 24 hours
  Fold Change, gene TNFRSF10B (Tumor necrosis factor receptor super family member 10b): −1.33 fold
[2]; TNFRSF25, NM_003790, Apoptosis and Senescence, 10 minutes, washed, further 24 hours
  Fold Change, gene TNFRSF25 (Tumor necrosis factor receptor super family member 25): −1.15 fold
[2]; TP53, NM_000546, Cell Cycle Control and DNA Damage Repair, 10 minutes, washed, further 24 hours
  Fold Change, gene TP53 (Tumor protein p53): −1.06 fold
